Experimental data: publication PMC5341858, “Molecular regulation of apoptotic machinery and lipid metabolism by mTORC1/mTORC2 dual inhibitors in preclinical models of HER2+/PIK3CAmut breast cancer” (Oncotarget, 2016)

Experiments:
Assay in all cases: KINOMEscan binding assay
[1] = molecular target: T1, ABL1 (T315I)- phosphorylated (Homo sapiens, UniProt P00519, T315I); settings: 1000 nM, percent control relative to vehicle
T1 construct: purchased DiscoveRx KINOMEscan
Description: (§1) IC50 values were generated using Graphpad PRISM 5 software.

[2] = molecular target: T2, ABL1-nonphosphorylated (Homo sapiens, UniProt P00519); settings: 1000 nM, percent control relative to vehicle
T2 construct: purchased DiscoveRx KINOMEscan
Description: as §1

[3] = molecular target: T3, ADCK3 (Homo sapiens, UniProt Q8NI60); settings: 1000 nM, percent control relative to vehicle
T3 construct: purchased DiscoveRx KINOMEscan
Description: as §1

[4] = molecular target: T4, AKT2 (Homo sapiens, UniProt P31751); settings: 1000 nM, percent control relative to vehicle
T4 construct: purchased DiscoveRx KINOMEscan
Description: as §1

[5] = molecular target: T5, ALK (Homo sapiens, UniProt Q9UM73); settings: 1000 nM, percent control relative to vehicle
T5 construct: purchased DiscoveRx KINOMEscan
Description: as §1

[6] = molecular target: T6, BRAF (Homo sapiens, UniProt P15056); settings: 1000 nM, percent control relative to vehicle
T6 construct: purchased DiscoveRx KINOMEscan
Description: as §1

[7] = molecular target: T7, CHEK1 (Homo sapiens, UniProt O14757); settings: 1000 nM, percent control relative to vehicle
T7 construct: purchased DiscoveRx KINOMEscan
Description: as §1

[8] = molecular target: T8, CSNK1D (Homo sapiens, UniProt P48730); settings: 1000 nM, percent control relative to vehicle
T8 construct: purchased DiscoveRx KINOMEscan
Description: as §1

[9] = molecular target: T9, CSNK1G2 (Homo sapiens, UniProt P78368); settings: 1000 nM, percent control relative to vehicle
T9 construct: purchased DiscoveRx KINOMEscan
Description: as §1

[10] = molecular target: T10, DYRK1B (Homo sapiens, UniProt Q9Y463); settings: 1000 nM, percent control relative to vehicle
T10 construct: purchased DiscoveRx KINOMEscan
T10 sequence (Q9Y463 whole entry): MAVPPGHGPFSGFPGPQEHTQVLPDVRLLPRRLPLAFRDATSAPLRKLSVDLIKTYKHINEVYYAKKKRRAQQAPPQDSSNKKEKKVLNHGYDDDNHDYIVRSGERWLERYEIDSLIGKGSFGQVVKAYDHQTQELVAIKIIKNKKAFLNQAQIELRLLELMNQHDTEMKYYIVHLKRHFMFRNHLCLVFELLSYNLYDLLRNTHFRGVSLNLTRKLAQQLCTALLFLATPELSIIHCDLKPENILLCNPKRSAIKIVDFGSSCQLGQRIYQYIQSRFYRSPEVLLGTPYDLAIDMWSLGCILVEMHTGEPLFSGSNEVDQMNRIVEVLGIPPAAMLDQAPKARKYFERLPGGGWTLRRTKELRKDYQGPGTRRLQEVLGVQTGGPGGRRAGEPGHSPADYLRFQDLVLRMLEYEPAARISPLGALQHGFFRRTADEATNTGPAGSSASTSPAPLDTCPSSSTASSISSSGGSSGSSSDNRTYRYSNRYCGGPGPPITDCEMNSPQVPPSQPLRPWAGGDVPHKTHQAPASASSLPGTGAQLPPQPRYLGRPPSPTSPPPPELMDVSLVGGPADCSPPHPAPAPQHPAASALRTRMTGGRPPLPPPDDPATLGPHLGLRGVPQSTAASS
Description: as §1

[11] = molecular target: T11, EGFR (Homo sapiens, UniProt P00533); settings: 1000 nM, percent control relative to vehicle
T11 construct: purchased DiscoveRx KINOMEscan
Description: as §1

[12] = molecular target: T12, ERBB2 (Homo sapiens, UniProt P04626); settings: 1000 nM, percent control relative to vehicle
T12 construct: purchased DiscoveRx KINOMEscan
Description: as §1

[13] = molecular target: T13, ERBB4 (Homo sapiens, UniProt Q15303); settings: 1000 nM, percent control relative to vehicle
T13 construct: purchased DiscoveRx KINOMEscan
Description: as §1

[14] = molecular target: T14, ERK1 (Homo sapiens, UniProt P27361); settings: 1000 nM, percent control relative to vehicle
T14 construct: purchased DiscoveRx KINOMEscan
Description: as §1

[15] = molecular target: T15, FAK (Homo sapiens, UniProt Q05397); settings: 1000 nM, percent control relative to vehicle
T15 construct: purchased DiscoveRx KINOMEscan
Description: as §1

[16] = molecular target: T16, FGFR3 (Homo sapiens, UniProt P22607); settings: 1000 nM, percent control relative to vehicle
T16 construct: purchased DiscoveRx KINOMEscan
Description: as §1

[17] = molecular target: T17, FLT3 (Homo sapiens, UniProt P36888); settings: 1000 nM, percent control relative to vehicle
T17 construct: purchased DiscoveRx KINOMEscan
Description: as §1

[18] = molecular target: T18, IGF1R (Homo sapiens, UniProt P08069); settings: 1000 nM, percent control relative to vehicle
T18 construct: purchased DiscoveRx KINOMEscan
Description: as §1

[19] = molecular target: T19, IKK-alpha (Homo sapiens, UniProt O15111); settings: 1000 nM, percent control relative to vehicle
T19 construct: purchased DiscoveRx KINOMEscan
Description: as §1

[20] = molecular target: T20, INSR (Homo sapiens, UniProt P06213); settings: 1000 nM, percent control relative to vehicle
T20 construct: purchased DiscoveRx KINOMEscan
Description: as §1

[21] = molecular target: T21, JNK3 (Homo sapiens, UniProt P53779); settings: 1000 nM, percent control relative to vehicle
T21 construct: purchased DiscoveRx KINOMEscan
Description: as §1

[22] = molecular target: T22, KIT (Homo sapiens, UniProt P10721); settings: 1000 nM, percent control relative to vehicle
T22 construct: purchased DiscoveRx KINOMEscan
Description: as §1

[23] = molecular target: T23, MAP3K4 (Homo sapiens, UniProt Q9Y6R4); settings: 1000 nM, percent control relative to vehicle
T23 construct: purchased DiscoveRx KINOMEscan
Description: as §1

[24] = molecular target: T24, MARK3 (Homo sapiens, UniProt P27448); settings: 1000 nM, percent control relative to vehicle
T24 construct: purchased DiscoveRx KINOMEscan
Description: as §1

[25] = molecular target: T25, MEK1 (Homo sapiens, UniProt Q02750); settings: 1000 nM, percent control relative to vehicle
T25 construct: purchased DiscoveRx KINOMEscan
Description: as §1

[26] = molecular target: T26, MKNK1 (Homo sapiens, UniProt Q9BUB5); settings: 1000 nM, percent control relative to vehicle
T26 construct: purchased DiscoveRx KINOMEscan
T26 sequence (Q9BUB5 whole entry): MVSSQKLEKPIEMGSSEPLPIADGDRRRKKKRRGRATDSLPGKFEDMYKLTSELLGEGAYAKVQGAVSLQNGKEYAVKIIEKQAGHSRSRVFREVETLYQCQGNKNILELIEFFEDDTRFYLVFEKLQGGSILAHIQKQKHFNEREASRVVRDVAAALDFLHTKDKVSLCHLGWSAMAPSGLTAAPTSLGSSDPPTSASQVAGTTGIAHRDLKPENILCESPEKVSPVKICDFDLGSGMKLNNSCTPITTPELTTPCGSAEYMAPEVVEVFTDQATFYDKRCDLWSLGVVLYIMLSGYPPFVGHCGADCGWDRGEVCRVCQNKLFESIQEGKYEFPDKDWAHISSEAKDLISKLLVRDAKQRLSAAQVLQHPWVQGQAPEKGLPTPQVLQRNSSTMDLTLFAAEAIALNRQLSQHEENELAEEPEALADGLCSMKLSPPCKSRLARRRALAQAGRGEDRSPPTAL
Description: as §1

[27] = molecular target: T27, MKNK2 (Homo sapiens, UniProt Q9HBH9); settings: 1000 nM, percent control relative to vehicle
T27 construct: purchased DiscoveRx KINOMEscan
Description: as §1

[28] = molecular target: T28, PAK1 (Homo sapiens, UniProt Q13153); settings: 1000 nM, percent control relative to vehicle
T28 construct: purchased DiscoveRx KINOMEscan
Description: as §1

[29] = molecular target: T29, PAK4 (Homo sapiens, UniProt O96013); settings: 1000 nM, percent control relative to vehicle
T29 construct: purchased DiscoveRx KINOMEscan
T29 sequence (O96013 whole entry): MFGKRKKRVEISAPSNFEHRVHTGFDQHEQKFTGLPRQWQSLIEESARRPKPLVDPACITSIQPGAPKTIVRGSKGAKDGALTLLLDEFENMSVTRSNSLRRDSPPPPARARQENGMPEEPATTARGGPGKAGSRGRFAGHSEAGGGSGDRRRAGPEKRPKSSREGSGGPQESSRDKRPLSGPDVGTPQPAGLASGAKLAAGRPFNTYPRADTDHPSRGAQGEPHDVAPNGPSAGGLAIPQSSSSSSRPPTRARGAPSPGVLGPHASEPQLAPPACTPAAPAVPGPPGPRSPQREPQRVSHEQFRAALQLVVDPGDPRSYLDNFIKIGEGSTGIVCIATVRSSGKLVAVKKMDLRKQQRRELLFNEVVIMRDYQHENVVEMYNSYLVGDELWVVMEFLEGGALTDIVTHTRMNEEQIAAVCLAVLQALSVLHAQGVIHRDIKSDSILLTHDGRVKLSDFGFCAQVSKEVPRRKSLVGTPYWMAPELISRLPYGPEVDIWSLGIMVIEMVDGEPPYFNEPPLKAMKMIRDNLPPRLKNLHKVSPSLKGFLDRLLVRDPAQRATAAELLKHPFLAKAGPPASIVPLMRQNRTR
Description: as §1

[30] = molecular target: T30, PCTK1 (Homo sapiens, UniProt Q00536); settings: 1000 nM, percent control relative to vehicle
T30 construct: purchased DiscoveRx KINOMEscan
Description: as §1

[31] = molecular target: PIK3CA (Homo sapiens, UniProt P42336)
Chain of PIK3CA (P42336 whole entry): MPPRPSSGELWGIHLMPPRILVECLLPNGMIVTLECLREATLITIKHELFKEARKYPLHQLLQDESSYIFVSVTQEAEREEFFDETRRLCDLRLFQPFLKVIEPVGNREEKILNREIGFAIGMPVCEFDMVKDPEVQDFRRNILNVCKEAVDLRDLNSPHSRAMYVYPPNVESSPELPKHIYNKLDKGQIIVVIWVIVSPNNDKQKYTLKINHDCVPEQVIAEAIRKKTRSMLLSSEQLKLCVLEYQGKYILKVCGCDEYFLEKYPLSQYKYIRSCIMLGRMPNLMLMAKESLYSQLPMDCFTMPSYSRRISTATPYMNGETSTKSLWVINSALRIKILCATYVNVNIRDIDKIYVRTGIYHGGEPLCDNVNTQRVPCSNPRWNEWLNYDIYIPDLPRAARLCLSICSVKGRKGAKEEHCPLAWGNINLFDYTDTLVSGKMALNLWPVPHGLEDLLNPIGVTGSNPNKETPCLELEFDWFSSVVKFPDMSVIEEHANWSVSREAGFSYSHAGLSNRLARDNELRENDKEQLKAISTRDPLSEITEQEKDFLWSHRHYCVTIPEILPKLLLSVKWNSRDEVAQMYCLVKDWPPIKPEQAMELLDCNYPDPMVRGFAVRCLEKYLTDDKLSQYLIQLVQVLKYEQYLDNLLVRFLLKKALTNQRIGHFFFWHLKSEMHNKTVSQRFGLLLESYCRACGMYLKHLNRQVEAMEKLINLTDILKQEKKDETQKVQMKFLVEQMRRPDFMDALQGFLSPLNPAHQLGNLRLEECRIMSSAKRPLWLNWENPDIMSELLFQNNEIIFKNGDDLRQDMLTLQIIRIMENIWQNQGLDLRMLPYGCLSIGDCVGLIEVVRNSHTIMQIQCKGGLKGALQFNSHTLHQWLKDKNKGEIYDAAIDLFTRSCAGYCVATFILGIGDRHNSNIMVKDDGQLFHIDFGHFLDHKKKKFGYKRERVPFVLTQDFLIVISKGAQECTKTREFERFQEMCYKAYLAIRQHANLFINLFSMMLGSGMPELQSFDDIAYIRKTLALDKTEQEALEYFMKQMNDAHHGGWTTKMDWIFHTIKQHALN
Description: as §1

[32] = molecular target: PIK3CB (Homo sapiens, UniProt P42338)
Description: as §1

[33] = molecular target: T31, PIM1 (Homo sapiens, UniProt P11309); settings: 1000 nM, percent control relative to vehicle
T31 construct: purchased DiscoveRx KINOMEscan
Description: as §1

[34] = molecular target: T32, PIM3 (Homo sapiens, UniProt Q86V86); settings: 1000 nM, percent control relative to vehicle
T32 construct: purchased DiscoveRx KINOMEscan
Description: as §1

[35] = molecular target: T33, PLK4 (Homo sapiens, UniProt O00444); settings: 1000 nM, percent control relative to vehicle
T33 construct: purchased DiscoveRx KINOMEscan
T33 sequence (O00444 whole entry): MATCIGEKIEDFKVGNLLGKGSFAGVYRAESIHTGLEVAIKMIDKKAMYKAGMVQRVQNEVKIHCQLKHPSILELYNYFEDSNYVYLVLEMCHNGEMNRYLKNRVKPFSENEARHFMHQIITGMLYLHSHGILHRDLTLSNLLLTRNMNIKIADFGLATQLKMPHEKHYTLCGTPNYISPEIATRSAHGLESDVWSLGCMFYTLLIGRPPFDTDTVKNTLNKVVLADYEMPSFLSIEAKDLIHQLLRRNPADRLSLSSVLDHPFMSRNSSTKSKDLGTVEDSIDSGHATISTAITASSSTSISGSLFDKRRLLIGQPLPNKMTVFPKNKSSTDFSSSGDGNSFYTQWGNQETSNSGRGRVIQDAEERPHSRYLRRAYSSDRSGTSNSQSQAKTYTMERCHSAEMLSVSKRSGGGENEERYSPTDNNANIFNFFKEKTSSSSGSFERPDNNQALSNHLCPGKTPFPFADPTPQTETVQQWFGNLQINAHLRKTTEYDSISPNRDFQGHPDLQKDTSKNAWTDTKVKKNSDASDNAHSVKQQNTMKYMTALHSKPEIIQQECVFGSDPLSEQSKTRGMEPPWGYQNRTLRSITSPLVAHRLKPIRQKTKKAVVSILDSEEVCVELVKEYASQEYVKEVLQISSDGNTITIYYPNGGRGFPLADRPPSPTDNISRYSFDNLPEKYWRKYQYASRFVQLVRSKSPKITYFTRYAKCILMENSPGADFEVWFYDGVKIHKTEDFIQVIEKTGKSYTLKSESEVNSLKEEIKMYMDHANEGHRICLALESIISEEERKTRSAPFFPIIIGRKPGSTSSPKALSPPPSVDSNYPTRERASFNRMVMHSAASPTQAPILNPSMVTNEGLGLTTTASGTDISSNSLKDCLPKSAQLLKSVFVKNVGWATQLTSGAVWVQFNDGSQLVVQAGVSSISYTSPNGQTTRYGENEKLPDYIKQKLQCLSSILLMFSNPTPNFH
Description: as §1

[36] = molecular target: T34, PRKCE (Homo sapiens, UniProt Q02156); settings: 1000 nM, percent control relative to vehicle
T34 construct: purchased DiscoveRx KINOMEscan
Description: as §1

[37] = molecular target: T35, RIOK2 (Homo sapiens, UniProt Q9BVS4); settings: 1000 nM, percent control relative to vehicle
T35 construct: purchased DiscoveRx KINOMEscan
Description: as §1

[38] = molecular target: T36, ROCK2 (Homo sapiens, UniProt O75116); settings: 1000 nM, percent control relative to vehicle
T36 construct: purchased DiscoveRx KINOMEscan
Description: as §1

[39] = molecular target: T37, RSK2 (Kin.Dom.1-N- terminal) (Homo sapiens, UniProt P51812); settings: 1000 nM, percent control relative to vehicle
T37 construct: RSK2 (Kin.Dom.1-N- terminal); purchased DiscoveRx KINOMEscan
Description: as §1

[40] = molecular target: T38, SRC (Homo sapiens, UniProt P12931); settings: 1000 nM, percent control relative to vehicle
T38 construct: purchased DiscoveRx KINOMEscan
Description: as §1

[41] = molecular target: T39, ULK2 (Homo sapiens, UniProt Q8IYT8); settings: 1000 nM, percent control relative to vehicle
T39 construct: purchased DiscoveRx KINOMEscan
Description: as §1

[42] = molecular target: T40, VEGFR2 (Homo sapiens, UniProt P35968); settings: 1000 nM, percent control relative to vehicle
T40 construct: purchased DiscoveRx KINOMEscan
T40 sequence (P35968 20-1356): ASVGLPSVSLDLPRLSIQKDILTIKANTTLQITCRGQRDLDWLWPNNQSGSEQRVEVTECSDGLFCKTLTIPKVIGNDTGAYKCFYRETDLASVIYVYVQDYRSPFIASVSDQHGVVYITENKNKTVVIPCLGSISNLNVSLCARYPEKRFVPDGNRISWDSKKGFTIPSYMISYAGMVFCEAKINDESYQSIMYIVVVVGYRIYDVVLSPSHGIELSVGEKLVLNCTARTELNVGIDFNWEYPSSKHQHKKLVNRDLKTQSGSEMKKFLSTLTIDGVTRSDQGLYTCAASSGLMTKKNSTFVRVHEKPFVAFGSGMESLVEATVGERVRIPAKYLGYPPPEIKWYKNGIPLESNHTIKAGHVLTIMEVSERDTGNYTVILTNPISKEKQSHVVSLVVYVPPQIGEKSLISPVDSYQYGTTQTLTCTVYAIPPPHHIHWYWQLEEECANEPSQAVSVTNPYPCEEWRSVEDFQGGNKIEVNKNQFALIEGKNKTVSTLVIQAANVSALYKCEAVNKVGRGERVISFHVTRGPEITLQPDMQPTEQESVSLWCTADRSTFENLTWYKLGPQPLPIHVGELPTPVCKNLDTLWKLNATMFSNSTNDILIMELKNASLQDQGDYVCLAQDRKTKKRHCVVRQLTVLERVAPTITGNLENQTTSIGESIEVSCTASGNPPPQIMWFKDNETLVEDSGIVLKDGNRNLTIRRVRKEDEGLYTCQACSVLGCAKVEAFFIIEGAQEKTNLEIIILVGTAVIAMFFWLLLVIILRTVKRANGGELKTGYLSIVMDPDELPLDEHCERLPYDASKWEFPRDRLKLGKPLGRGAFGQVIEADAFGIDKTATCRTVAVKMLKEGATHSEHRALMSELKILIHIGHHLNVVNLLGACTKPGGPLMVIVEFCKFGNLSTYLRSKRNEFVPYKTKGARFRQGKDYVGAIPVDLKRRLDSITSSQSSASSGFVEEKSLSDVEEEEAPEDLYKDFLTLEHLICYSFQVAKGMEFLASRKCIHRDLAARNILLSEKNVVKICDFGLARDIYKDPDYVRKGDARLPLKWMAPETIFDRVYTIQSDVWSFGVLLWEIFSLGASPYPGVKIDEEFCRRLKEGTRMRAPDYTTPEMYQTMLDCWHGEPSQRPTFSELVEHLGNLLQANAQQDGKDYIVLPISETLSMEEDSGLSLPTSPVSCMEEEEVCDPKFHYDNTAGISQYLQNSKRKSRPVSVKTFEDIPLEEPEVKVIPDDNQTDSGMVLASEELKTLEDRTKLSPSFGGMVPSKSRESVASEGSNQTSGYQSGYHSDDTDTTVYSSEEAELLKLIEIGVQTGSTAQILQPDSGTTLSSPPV
Description: as §1

[43] = molecular target: T41, ZAP70 (Homo sapiens, UniProt P43403); settings: 1000 nM, percent control relative to vehicle
T41 construct: purchased DiscoveRx KINOMEscan
Description: as §1

[44] = molecular target: T42, p38-alpha (Homo sapiens, UniProt Q16539); settings: 1000 nM, percent control relative to vehicle
T42 construct: purchased DiscoveRx KINOMEscan
Description: as §1

[45] = molecular target: T43, p38-beta (Homo sapiens, UniProt Q15759); settings: 1000 nM, percent control relative to vehicle
T43 construct: purchased DiscoveRx KINOMEscan
Description: as §1

For `CNC(=O)c1cccc(-c2ccc3c(N4C5CCC4COC5)nc(N4CCOC[C@@H]4C)nc3n2)c1` [MTI-31], which “% Control” value [1] is on record?
Its value is 76%.

What about the “% Control” value [2] of the same molecule?
The value was 52%.

What about the “% Control” value [3] of the same molecule?
Its value is 97%.

What about the “% Control” value [4] of the same molecule?
The value was 94%.

What about the “% Control” value [5] of the same molecule?
Its value is 78%.

And the “% Control” value [6]?
The value was 80%.

And the “% Control” value [7]?
The value was 83%.

And the “% Control” value [8]?
Its value is 80%.

And the “% Control” value [9]?
Its value is 100%.

What about the “% Control” value [10] of the same molecule?
The value was 100%.

What about the “% Control” value [11] of the same molecule?
The value was 94%.

What about the “% Control” value [12] of the same molecule?
Its value is 97%.

And the “% Control” value [13]?
Its value is 100%.

And the “% Control” value [14]?
Its value is 100%.

What about the “% Control” value [15] of the same molecule?
Its value is 89%.

And the “% Control” value [16]?
Its value is 92%.

And the “% Control” value [17]?
The value was 100%.

And the “% Control” value [18]?
Its value is 100%.

What about the “% Control” value [19] of the same molecule?
The value was 82%.

What about the “% Control” value [20] of the same molecule?
The value was 100%.

And the “% Control” value [21]?
Its value is 96%.

And the “% Control” value [22]?
Its value is 100%.

What about the “% Control” value [23] of the same molecule?
The value was 100%.

And the “% Control” value [24]?
Its value is 71%.

And the “% Control” value [25]?
The value was 73%.

What about the “% Control” value [26] of the same molecule?
Its value is 90%.

What about the “% Control” value [27] of the same molecule?
The value was 100%.

What about the “% Control” value [28] of the same molecule?
The value was 100%.

What about the “% Control” value [29] of the same molecule?
The value was 100%.

What about the “% Control” value [30] of the same molecule?
Its value is 87%.

What about the Kd [31] of the same molecule?
The Kd was > 1000 nM.

And the “% Control” value ([31]; 1000 nM, percent control relative to vehicle)?
The value was 100%.

What about the Kd [32] of the same molecule?
Its Kd is > 1000 nM.

And the “% Control” value [33]?
Its value is 100%.

What about the “% Control” value [34] of the same molecule?
Its value is 100%.

And the “% Control” value [35]?
Its value is 87%.

What about the “% Control” value [36] of the same molecule?
Its value is 91%.

And the “% Control” value [37]?
Its value is 80%.

What about the “% Control” value [38] of the same molecule?
The value was 73%.

What about the “% Control” value [39] of the same molecule?
Its value is 78%.

And the “% Control” value [40]?
The value was 100%.

And the “% Control” value [41]?
The value was 80%.

And the “% Control” value [42]?
The value was 98%.

And the “% Control” value [43]?
Its value is 72%.

What about the “% Control” value [44] of the same molecule?
Its value is 100%.

What about the “% Control” value [45] of the same molecule?
The value was 100%.
